Source: US20070149557A1, “CXCR3 antagonists” (Amgen Inc., priority 2005, published 2007)

Biological target: T1, CXCR3 (Homo sapiens, UniProt P49682)
T1 sequence (P49682 1-368): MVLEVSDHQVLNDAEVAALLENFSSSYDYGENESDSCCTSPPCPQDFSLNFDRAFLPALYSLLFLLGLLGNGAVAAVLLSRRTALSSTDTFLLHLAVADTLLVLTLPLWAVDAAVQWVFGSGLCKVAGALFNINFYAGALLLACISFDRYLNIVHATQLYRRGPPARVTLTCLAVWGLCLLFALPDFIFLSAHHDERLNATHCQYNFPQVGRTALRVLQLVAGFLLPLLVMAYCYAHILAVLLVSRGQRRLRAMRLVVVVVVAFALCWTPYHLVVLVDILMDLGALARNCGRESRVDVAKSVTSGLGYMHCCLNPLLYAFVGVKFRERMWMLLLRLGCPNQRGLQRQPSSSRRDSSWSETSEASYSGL
Test: 125I-IP-10 binding assay
Settings: displacement of 125I-IP-10

SMILES	IC50 [µM]
Fc1cc(C(F)(F)F)ccc1N1CCC2(CC1)NCCc1c2[nH]c2ccccc12 [Example 12]	> 1
FC(F)(F)c1ccc(N2CCC3(CC2)NCCc2c3[nH]c3ccccc23)c(Br)c1 [Example 13]	> 1
O=[N+]([O-])c1ccc(N2CCC3(CC2)NCCc2c3[nH]c3ccccc23)c(Cl)c1 [Example 18]	> 1
FC(F)(F)c1ccc(N2CCC3(CC2)NCCc2c3[nH]c3ccccc23)c(Cl)c1 [Example 5]	< 0.5
FC(F)(F)c1ccc(N2CCC3(CC2)NCCc2c3[nH]c3ccccc23)cc1 [Example 7]	> 1
Clc1ccc(N2CCC3(CC2)NCCc2c3[nH]c3ccccc23)c(Cl)c1 [Example 16]	> 1
Clc1cc(I)ccc1N1CCC2(CC1)NCCc1c2[nH]c2ccccc12 [Example 17]	> 1
FC(F)(F)c1cc(Cl)c(N2CCC3(CC2)NCCc2c3[nH]c3ccccc23)c(Cl)c1 [Example 14]	> 1
COC(=O)c1ccc(N2CCC3(CC2)NCCc2c3[nH]c3ccccc23)c(Cl)c1 [Example 19]	> 1
O=[N+]([O-])c1cc(C(F)(F)F)ccc1N1CCC2(CC1)NCCc1c2[nH]c2ccccc12 [Example 8]	> 1
FC(F)(F)c1ccc(N2CCC3(CC2)NCCc2c3[nH]c3ccccc23)nc1 [Example 2]	> 1
FC(F)(F)c1ccc(Cl)c(N2CCC3(CC2)NCCc2c3[nH]c3ccccc23)c1 [Example 6]	> 1
NC(=O)c1cc(C(F)(F)F)ccc1N1CCC2(CC1)NCCc1c2[nH]c2ccccc12 [Example 9]	0.5 to 1
Clc1cnc(N2CCC3(CC2)NCCc2c3[nH]c3ccccc23)c(Cl)c1 [Example 3]	> 1
FC(F)(F)c1cnc(N2CCC3(CC2)NCCc2c3[nH]c3ccccc23)c(Cl)c1 [Example 1]	< 0.5
O=[N+]([O-])c1cc(C(F)(F)F)cc(Cl)c1N1CCC2(CC1)NCCc1c2[nH]c2ccccc12 [Example 15]	< 0.5
FC(F)(F)c1ccc(N2CCC3(CC2)NCCc2c3[nH]c3ccccc23)c(C(F)(F)F)c1 [Example 11]	> 1
N#Cc1cc(C(F)(F)F)ccc1N1CCC2(CC1)NCCc1c2[nH]c2ccccc12 [Example 10]	> 1
Cc1cc(C(F)(F)F)cnc1N1CCC2(CC1)NCCc1c2[nH]c2ccccc12 [Example 4]	> 1
